Measured values taken from ChEMBL document CHEMBL3046538, “Synthesis of simplified herboxidiene aromatic hybrids” (2000).

Tests used:
Assay type in all cases: functional
Solanum = assay: Herbicidal activity against Solanum assessed as control at 1 kg/hacter post-emergently
Amaranthus spinosus = assay: Herbicidal activity against Amaranthus spinosus assessed as control at 1 kg/hacter post-emergently
[1] = Herbicidal activity against biennial weeds assessed as control at 1 kg/hacter post-emergently
Abutilon = assay: Herbicidal activity against Abutilon assessed as control at 1 kg/hacter post-emergently

| SMILES | Efficacy (Solanum) | Efficacy (Amaranthus spinosus) | Efficacy [1] | Efficacy (Abutilon) |
| --- | --- | --- | --- | --- |
| COC(=O)C[C@H]1CC[C@H](C)[C@@H](/C(C)=C/C=C/[C@@H](C)C[C@@]2(C)O[C@@H]2[C@H](C)[C@@H](OC)[C@@H](C)O)O1 [HERBOXIDIENE METHYL ESTER] | 100% | 100% | 100% | 100% |
| CCCC[C@H]1O[C@H]1CCOc1cccc([C@@H]2CCC[C@H](CC(=O)OC)O2)c1 | 90% | 30% | 10% | 10% |
